In ChEMBL document CHEMBL1201862, “PubChem BioAssay data set” (2004):
Active and inactive are the calls of the source.

How the values were obtained:
[1] = Counterscreen for activators of the function of SWI/SNF related, matrix associated, actin dependent regulator of chromatin, subfamily a, member 2 (SMARCA2, BRM): Luminescence-based cell-based high throughput dose response assay to identify non-selective compounds using the VP16 reporter assay.; format: functional
[2] = molecular target: FAD-linked sulfhydryl oxidase ALR (Homo sapiens, UniProt P55789); test: inhibitors of human ALR sulfhydryl oxidase, dose response, biochemical, H2O2 detection, luminescence, cherry-pick (AID 493248)
Sequence of FAD-linked sulfhydryl oxidase ALR (P55789 whole entry): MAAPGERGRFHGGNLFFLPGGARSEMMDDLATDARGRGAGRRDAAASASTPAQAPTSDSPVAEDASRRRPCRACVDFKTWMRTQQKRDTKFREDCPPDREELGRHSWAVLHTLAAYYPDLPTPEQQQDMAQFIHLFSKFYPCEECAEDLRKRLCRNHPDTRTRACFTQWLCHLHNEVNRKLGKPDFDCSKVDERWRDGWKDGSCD

[3] = molecular target: SWI/SNF-related matrix-associated actin-dependent regulator of chromatin subfamily A member 2 (Homo sapiens, UniProt P51531); test: Luminescence-based cell-based high throughput dose response assay to identify activators of the function of SWI/SNF related, matrix associated, actin dependent regulator of chromatin, subfamily a, member 2 (SMARCA2, BRM).; format: functional
Sequence of SWI/SNF-related matrix-associated actin-dependent regulator of chromatin subfamily A member 2 (P51531 whole entry): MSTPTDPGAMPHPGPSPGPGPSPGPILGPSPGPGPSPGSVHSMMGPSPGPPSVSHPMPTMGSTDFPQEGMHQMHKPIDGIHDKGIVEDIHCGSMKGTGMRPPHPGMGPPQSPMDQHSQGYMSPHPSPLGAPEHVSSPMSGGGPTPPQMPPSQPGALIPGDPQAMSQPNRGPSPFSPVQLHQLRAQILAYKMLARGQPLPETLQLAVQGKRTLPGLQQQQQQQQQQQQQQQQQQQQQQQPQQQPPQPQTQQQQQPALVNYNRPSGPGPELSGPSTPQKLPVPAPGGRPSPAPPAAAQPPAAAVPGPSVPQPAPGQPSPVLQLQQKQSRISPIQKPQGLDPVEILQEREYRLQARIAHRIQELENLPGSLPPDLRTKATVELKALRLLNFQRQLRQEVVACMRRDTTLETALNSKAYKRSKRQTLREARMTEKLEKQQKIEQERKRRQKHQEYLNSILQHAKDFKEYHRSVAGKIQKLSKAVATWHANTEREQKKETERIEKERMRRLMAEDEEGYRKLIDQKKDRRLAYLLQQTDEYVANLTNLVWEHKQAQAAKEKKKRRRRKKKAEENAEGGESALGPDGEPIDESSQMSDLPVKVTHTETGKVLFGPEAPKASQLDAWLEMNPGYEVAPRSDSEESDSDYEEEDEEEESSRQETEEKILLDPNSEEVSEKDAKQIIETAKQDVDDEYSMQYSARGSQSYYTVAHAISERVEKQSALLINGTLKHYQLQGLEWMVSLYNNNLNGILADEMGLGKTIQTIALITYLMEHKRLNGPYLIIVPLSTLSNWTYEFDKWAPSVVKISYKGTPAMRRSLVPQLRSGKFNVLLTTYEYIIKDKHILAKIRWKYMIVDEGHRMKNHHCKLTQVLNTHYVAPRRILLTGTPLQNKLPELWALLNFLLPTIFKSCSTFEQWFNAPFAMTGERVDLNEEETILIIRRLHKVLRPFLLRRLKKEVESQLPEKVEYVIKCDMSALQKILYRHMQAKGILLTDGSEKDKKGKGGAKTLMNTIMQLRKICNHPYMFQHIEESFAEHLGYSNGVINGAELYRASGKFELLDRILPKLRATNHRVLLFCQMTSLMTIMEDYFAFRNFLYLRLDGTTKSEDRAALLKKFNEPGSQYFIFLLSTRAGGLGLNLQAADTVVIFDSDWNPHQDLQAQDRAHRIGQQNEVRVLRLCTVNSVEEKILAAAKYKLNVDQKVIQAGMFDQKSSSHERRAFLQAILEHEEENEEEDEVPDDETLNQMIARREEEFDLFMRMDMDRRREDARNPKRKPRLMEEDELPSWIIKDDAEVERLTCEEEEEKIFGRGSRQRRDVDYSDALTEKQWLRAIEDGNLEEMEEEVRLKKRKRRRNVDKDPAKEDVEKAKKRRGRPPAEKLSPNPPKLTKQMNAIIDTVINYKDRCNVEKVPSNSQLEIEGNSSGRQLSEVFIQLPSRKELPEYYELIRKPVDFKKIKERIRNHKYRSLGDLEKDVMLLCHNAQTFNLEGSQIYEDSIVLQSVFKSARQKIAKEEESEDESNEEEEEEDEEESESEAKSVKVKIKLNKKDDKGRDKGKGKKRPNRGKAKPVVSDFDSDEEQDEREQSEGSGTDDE

[4] = molecular target: T1, Replicative DNA helicase DnaB (Mycobacterium tuberculosis, UniProt P9WMR3); test: DnaB intein splicing inhibitors, dose response, biochemical, cell-free fluorescence (AID 449749); format: functional
T1 sequence (P9WMR3 whole entry): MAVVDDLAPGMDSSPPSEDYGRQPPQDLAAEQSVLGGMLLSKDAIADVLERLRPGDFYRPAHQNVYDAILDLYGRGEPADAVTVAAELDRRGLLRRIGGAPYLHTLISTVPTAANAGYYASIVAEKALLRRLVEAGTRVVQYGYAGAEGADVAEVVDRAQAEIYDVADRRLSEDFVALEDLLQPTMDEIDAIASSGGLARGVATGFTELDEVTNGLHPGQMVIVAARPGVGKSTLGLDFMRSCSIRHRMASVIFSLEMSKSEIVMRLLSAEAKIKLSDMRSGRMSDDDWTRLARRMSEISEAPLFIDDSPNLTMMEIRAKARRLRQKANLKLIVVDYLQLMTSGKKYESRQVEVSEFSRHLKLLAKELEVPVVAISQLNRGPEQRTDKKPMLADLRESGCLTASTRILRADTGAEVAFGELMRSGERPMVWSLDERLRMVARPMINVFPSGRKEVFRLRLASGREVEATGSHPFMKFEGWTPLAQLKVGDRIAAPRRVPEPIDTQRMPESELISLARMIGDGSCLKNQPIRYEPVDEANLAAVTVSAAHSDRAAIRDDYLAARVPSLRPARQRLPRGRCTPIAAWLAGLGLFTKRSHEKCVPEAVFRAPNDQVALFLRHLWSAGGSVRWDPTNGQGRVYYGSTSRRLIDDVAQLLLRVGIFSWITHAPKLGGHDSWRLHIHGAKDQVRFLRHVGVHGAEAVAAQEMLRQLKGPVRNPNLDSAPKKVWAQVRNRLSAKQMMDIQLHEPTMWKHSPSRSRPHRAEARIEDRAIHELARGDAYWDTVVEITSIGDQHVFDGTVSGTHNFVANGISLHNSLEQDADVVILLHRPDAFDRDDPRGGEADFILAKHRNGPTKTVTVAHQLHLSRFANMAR

Protein RecA = molecular target: T2, Protein RecA (Mycobacterium tuberculosis, UniProt P9WHJ3); test: Fluorescence Cell-Free Homogeneous Dose Retest to Identify Inhibitors of RecA-Intein Splicing Activity. [Related pubchem assays (depositor defined):AID2097, AID2223, AID489010, AID492950]; format: functional
T2 sequence (P9WHJ3 whole entry): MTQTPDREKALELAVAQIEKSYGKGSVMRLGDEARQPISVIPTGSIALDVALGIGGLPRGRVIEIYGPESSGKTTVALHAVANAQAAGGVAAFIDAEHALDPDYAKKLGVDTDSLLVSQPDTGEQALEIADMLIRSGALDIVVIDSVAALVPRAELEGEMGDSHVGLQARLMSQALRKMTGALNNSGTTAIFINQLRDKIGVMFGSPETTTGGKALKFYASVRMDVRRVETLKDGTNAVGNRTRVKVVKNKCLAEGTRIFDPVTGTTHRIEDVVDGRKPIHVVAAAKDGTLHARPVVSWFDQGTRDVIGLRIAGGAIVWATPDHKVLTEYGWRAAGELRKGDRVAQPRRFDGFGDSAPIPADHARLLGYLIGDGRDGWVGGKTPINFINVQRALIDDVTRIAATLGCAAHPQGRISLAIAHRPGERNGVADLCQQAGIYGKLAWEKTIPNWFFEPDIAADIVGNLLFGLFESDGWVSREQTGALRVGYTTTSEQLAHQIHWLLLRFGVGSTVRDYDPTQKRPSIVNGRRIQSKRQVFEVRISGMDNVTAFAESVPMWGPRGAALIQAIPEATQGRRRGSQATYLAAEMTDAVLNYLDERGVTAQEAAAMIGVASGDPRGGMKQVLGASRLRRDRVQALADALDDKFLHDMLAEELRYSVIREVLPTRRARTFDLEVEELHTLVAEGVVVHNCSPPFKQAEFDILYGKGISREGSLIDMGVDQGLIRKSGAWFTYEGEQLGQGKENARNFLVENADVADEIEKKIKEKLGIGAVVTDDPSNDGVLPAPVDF

[5] = control 3'UTR Renilla luciferase suppression, dose response, counter-screen for Shn3 inhibitor project, cell-based, Clone20-Shn3RL, cherry-picked (AID 624133); format: functional
Beta Lactamase = Beta Lactamase (Pseudomonas aeruginosa, UniProt Q932Y6); test: beta-lactamase reporter inhibitor potency, dose response, artefact control for NOD2-RIPK2 interaction inhibitor project, BLA reporter cells, FRET fluorescence (AID 651552); format: functional, cell-based
Sequence of Beta Lactamase (Q932Y6 whole entry, the tested form may be a part): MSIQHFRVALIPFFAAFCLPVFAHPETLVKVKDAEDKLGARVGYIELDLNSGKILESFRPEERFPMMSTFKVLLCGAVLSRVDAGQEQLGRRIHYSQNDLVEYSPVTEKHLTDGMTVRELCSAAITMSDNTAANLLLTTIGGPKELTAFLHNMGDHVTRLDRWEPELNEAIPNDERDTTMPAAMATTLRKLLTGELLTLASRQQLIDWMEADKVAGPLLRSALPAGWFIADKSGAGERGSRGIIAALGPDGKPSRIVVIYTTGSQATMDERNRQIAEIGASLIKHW

[6] = Fluorescence-based cell-based high throughput dose response assay for inhibitors of the interaction of nucleotide-binding oligomerization domain containing 2 (NOD2) and the receptor-interacting serine-threonine kinase 2 (RIPK2).; format: functional; details: Homo sapiens
[7] = Shn3 3'UTR reporter inhibitors, dose response, cell-based, Clone20 osteoblasts, firefly luciferase, cherry-picked (AID 624132); format: functional;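 note: firefly luciferase luminescence from reporter carrying the Shn3 3'UTR in osteoblasts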
[8] = HepG2 cell cytotoxicity, dose response, cytotoxicity control for Shn3 inhibitor project, CellTiter-Glo, cherry-picked (AID 624134); format: functional, cell-based
cells = format: functional, cell-based
[9] = cytotoxicity in HEK-293T cells, dose response, cytotoxicity control for BCR NF-kB inhibitor project, luminescence, B-cell screen hits (AID 489021); format: functional, cell-based;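 note: HEK-293T cells carrying an NF-kB luciferase reporter; cells exposed to compound for about 14 hours before viability readout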
Protein Wnt-3a [10] = molecular target: T3, Protein Wnt-3a (Mus musculus, UniProt P27467); test: Wnt3a-driven reporter signaling inhibition, dose response, selectivity assay for Gli-SUFU antagonist project, Wnt-LIGHT cells, luminescence (AID 651570); format: functional; details: read-out: IC50_Mean;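 note: Wnt-LIGHT reporter cells stimulated with conditioned medium from Wnt3a-producing cells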
T3 sequence (P27467 whole entry): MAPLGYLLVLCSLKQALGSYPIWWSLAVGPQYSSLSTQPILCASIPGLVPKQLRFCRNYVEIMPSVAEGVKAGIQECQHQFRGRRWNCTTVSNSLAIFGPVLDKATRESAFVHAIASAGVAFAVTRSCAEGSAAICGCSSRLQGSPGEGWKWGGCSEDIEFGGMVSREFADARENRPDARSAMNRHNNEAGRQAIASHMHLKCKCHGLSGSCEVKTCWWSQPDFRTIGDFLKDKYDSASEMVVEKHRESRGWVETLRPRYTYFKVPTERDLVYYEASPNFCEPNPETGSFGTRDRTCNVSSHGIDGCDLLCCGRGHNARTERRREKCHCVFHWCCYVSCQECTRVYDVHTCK

Protein Wnt-3a [11] = molecular target: T3, Protein Wnt-3a; test: SAR analysis of small molecule antagonists of Gli-SUFU in a Wnt3a luminescent reporter assay.; format: functional
Vero = Vero cell cytotoxicity, cytotoxicity control for flavivirus capping enzyme inhibitors (AID 588742); format: functional; details: Chlorocebus sabaeus
[12] = molecular target: Glucose-6-phosphate 1-dehydrogenase (Homo sapiens, UniProt P11413); test: human G6PD enzyme inhibitors, dose response, selectivity assay for P. falciparum G6PD inhibitor project, biochemical, fluorescence (AID 504792); format: functional
Sequence of Glucose-6-phosphate 1-dehydrogenase (P11413 whole entry): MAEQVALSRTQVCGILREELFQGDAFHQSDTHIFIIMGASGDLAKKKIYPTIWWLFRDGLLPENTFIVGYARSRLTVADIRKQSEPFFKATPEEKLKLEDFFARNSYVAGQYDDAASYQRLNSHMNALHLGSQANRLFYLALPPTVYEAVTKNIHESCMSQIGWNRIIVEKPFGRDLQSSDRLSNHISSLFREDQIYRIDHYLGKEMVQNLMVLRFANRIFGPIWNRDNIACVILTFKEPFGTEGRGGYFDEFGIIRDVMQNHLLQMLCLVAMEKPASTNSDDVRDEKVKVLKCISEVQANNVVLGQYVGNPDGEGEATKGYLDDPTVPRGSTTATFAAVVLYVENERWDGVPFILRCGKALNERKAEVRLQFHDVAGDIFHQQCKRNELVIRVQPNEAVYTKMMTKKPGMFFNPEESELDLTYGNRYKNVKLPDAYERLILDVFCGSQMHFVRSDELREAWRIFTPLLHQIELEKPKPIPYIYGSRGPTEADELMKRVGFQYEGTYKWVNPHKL

[13] = molecular target: Heat shock protein HSP 90-alpha (Homo sapiens, UniProt P07900); format: functional, organism-based
Genome polyprotein = Genome polyprotein (dengue virus type 2, UniProt P29990); test: Dengue-2 NS5 methyltransferase inhibitors, primary screen, biochemical, confirmation dose response (AID 588689); format: functional
Sequence of Genome polyprotein (P29990 2492-3391 limits assumed): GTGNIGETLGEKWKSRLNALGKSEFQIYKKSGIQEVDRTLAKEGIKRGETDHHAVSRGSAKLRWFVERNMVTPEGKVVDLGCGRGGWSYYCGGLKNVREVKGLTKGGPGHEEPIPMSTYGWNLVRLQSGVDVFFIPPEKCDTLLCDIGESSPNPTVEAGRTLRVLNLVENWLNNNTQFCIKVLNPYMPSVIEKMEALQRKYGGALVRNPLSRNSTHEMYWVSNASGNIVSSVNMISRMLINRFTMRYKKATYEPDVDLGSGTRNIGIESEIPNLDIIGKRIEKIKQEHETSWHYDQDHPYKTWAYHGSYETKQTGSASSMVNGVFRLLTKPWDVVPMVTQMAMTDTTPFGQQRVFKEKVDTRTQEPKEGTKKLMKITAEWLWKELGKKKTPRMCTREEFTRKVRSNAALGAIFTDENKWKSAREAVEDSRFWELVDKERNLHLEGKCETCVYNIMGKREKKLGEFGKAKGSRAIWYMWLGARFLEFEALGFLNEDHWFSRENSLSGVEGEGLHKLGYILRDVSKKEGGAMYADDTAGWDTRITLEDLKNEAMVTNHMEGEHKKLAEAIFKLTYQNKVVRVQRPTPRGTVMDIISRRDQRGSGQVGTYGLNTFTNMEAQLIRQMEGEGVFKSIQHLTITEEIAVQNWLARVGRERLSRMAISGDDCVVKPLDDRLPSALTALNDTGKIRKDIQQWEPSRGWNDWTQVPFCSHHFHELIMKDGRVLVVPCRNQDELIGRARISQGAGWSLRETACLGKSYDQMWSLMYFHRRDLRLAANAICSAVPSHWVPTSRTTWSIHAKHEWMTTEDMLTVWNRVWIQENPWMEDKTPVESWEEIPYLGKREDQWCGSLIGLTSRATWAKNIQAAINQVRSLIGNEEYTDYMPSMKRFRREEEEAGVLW

[14] = HeLa cell cytotoxicity, dose response, cytotoxicity control for MgcRacGAP inhibitor project (AID 624300); format: functional
[15] = molecular target: Photoreceptor-specific nuclear receptor (Homo sapiens, UniProt Q9Y5X4); format: functional, cell-based;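 note: CHO-S cells with Gal4-NCOR and VP16-NR2E3 two-hybrid luciferase reporter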
Sequence of Photoreceptor-specific nuclear receptor (Q9Y5X4 whole entry, the tested form may be a part): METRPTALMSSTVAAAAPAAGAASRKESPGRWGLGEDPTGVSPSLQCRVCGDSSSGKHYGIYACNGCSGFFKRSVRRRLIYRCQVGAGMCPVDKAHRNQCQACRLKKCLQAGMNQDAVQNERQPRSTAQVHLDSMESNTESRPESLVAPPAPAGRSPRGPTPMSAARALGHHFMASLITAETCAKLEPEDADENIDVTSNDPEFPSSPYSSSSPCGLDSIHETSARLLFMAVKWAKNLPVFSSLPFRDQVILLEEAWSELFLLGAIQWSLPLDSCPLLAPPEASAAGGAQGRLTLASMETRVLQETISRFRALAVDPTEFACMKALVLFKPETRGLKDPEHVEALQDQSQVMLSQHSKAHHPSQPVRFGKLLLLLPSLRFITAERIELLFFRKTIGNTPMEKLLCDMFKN

[16] = molecular target: T4, Rac GTPase-activating protein 1 (Homo sapiens, UniProt Q9H0H5); test: MgcRacGAP GTPase-activating activity inhibitors, confirmation, biochemical, ADP Hunter fluorescence, primary and confirmatory (AID 624330); format: functional
T4 sequence (Q9H0H5 whole entry): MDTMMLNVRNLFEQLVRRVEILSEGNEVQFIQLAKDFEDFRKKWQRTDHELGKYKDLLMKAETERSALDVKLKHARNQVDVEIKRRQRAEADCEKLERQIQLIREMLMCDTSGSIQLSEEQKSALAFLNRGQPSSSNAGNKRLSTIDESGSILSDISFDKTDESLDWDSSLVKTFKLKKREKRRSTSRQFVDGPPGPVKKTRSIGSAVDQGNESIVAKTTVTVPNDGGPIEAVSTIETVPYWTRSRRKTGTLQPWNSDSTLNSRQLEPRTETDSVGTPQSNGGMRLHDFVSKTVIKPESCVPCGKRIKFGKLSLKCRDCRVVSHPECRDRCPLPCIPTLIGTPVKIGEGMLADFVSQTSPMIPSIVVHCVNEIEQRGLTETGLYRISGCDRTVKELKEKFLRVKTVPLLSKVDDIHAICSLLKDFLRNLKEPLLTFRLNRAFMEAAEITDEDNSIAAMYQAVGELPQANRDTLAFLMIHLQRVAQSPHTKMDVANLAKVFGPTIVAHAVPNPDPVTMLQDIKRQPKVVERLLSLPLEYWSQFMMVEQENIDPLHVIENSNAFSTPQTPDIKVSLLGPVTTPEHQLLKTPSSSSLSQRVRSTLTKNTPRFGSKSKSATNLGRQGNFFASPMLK

[17] = HEK293T cell cytotoxicity, dose response, cytotoxicity control for HIV Vif inhibitor project, cherry-picks (AID 652208); format: functional, cell-based
[18] = IGROV1 ovarian cancer cell cytotoxicity, dose response, PAX8 inhibitor project, plate reader, dry powder samples (AID 743043); format: functional, cell-based; details: IGROV-1
Paired box protein Pax-8 = Paired box protein Pax-8 (Homo sapiens, UniProt Q06710); test: inhibitors of PAX8-driven TPO luciferase reporter, dose response, RMG-I cells, cherry-pick (AID 687027); format: functional, cell-based;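 note: luciferase reporter driven by Pax8 target thyroperoxidase promoter measured by SteadyGlo luminescence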
Sequence of Paired box protein Pax-8 (Q06710 whole entry): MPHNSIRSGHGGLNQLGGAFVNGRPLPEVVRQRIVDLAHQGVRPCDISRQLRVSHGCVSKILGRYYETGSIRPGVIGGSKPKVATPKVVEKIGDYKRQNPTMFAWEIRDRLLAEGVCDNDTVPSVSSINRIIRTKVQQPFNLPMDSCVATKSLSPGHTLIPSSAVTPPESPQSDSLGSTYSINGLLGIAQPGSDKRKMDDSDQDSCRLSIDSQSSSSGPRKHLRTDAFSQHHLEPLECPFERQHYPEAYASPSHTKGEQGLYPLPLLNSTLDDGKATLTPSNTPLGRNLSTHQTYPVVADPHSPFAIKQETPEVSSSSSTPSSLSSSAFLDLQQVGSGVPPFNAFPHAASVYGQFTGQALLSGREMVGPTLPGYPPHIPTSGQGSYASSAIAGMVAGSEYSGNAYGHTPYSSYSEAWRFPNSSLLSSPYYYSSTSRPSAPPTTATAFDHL

[19] = NIH:OVCAR-3 ovarian cancer cell cytotoxicity, dose response, PAX8 inhibitor project, plate reader, dry powder samples (AID 743044); format: functional, cell-based
[20] = NIH/3T3 fibroblast cytotoxicity, dose response, cytotoxicity control for T. cruzi growth inhibitor project, cell-based, cherry-pick samples, set 2 (AID 651817); format: functional; details: NIH3T3
[21] = non-specific cell cytotoxicity, dose response, cytotoxicity control for PAX8 inhibitor project, plate reader, dry powder samples (AID 743021); format: functional, cell-based
[22] = miR-122 activators in hepatoma reporter cells, dose response, cell-based, Huh7 psiCHECK-miR122, Renilla luciferase, cherry-picked (AID 651956); format: functional;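 note: huh7 hepatoma cells stably carrying a psiCHECK-2 miR-122 sensor plasmid; renilla luciferase signal reporting endogenous miR-122 activity after 48 h compound exposure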
[23] = HEK293T cytotoxicity, dose response, cytotoxicity control for miR-122 modulator project, cell-based, activator set, cherry-pick (AID 720690); format: functional;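 note: HEK293T human cells scored for general mammalian cytotoxicity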
[24] = inhibitors of CMV-promoter luciferase reporter, dose response, counter-screen for Pax8 inhibitor project, cell-based, HEK293, luminescence, dry powder (AID 743020); format: functional
[25] = cytotoxicity in OVCAR8 ovarian cancer cells, dose response, PAX8 project, cell-based, plate reader, dry powder samples (AID 743197); format: functional; details: OVCAR-8

Compound: CN(C)P(=O)(C(Cl)=C(N1CCCCC1)N1CCCCC1)N(C)C
- EC50 [1]: > 91.1 µM (inactive)
- AC50 [2]: 41.1 µM (active)
- EC50 [3]: > 91.1 µM (inactive)

Compound: COc1ccc(CNC(=O)c2nc(S(=O)(=O)Cc3ccccc3)ncc2Cl)cc1
- AC50 [4]: 4.17 µM (active)
- EC50 (Protein RecA): 4.07 µM (active)
- AC50 [5]: 7.01 µM (active)
- IC50 (Beta Lactamase): 21 µM (inactive)
- IC50 [6]: 2.96 µM (active)
- AC50 [7]: 0.956 µM (active)
- AC50 [8]: 30.8 µM (active)

Compound: CCc1nnc(NS(=O)(=O)c2ccc(NC=C3C(=O)CC(C)(C)CC3=O)cc2)s1
- IC50 (cells): 60.8 µM (inactive)

Compound: CCOc1ccc(S(=O)(=O)NCc2ccncc2)cc1NC(=O)c1ccccc1
- IC50 [9]: > 80 µM (inactive)
- IC50 (Protein Wnt-3a [10]): 33.2 µM (inactive)
- IC50 (Protein Wnt-3a [11]): > 21.8 µM (inactive)

Compound: CCc1nc(C)cc2c1sc1ccccc12
- EC50 [1]: > 91.2 µM (inactive)
- EC50 [3]: > 91.2 µM (inactive)

Compound: O=C1NC(=O)N(c2ccc(Cl)cc2)C(=O)/C1=C\Nc1ccc(S(=O)(=O)Nc2nccs2)cc1
- IC50 (cells): 74.7 µM (inactive)

Compound: O=C1/C(=C\c2ccc([N+](=O)[O-])cc2)CS(=O)(=O)C/C1=C/c1ccc([N+](=O)[O-])cc1
- CC50 (Vero): 0.46 µM (active)
- IC50 [12]: > 80 µM (inactive)
- AC50 [13]: 0.353 µM (active)
- IC50 (Genome polyprotein): > 100 µM (active)
- CC50 [14]: 25 µM (active)
- IC50 (Beta Lactamase): 36.4 µM (inactive)
- IC50 [15]: 2 µM (active)
- IC50 [6]: 0.93 µM (active)
- IC50 [16]: 24.8 µM (active)

Compound: O=C(c1cc(-c2ccncc2)nc2ccccc12)N1CCN(Cc2ccccc2)CC1
- AC50 [17]: > 52 µM (inactive)

Compound: Cc1ccc(S(=O)(=O)Nc2ccc3c(c2)CC(=O)N([C@@H](C)CO)C[C@@H](C)[C@H](CN(C)Cc2ccc(Cl)c(Cl)c2)O3)cc1
- AC50 [18]: 49.9 µM (active)
- AC50 (Paired box protein Pax-8): 5.67 µM (active)
- AC50 [19]: 31.8 µM (active)
- AC50 [20]: 12.3 µM (active)

Compound: COc1cc(C=C2C(=O)C=CC2=O)ccc1O
- AC50 [21]: 19.1 µM (active)
- AC50 (Paired box protein Pax-8): 1.63 µM (active)

Compound: CN1C(=O)c2cc(NS(=O)(=O)c3ccc(Cl)cc3)ccc2OC[C@@H]2O[C@H](CC(=O)N3CCc4ccccc4C3)CC[C@H]21
- AC50 [22]: 19.1 µM (active)
- AC50 [23]: 46.9 µM (active)

Compound: C[C@H](CO)N1C[C@H](C)[C@H](CN(C)Cc2ccc(Cl)c(Cl)c2)Oc2ccc(NS(=O)(=O)c3ccc(F)cc3)cc2CC1=O
- AC50 [20]: 9.99 µM (active)

Compound: COc1ccc(NC(=O)N(C)C[C@H]2OCCCC[C@@H](C)Oc3ccc(NC(=O)Nc4ccc(C(F)(F)F)cc4)cc3C(=O)N([C@@H](C)CO)C[C@@H]2C)cc1
- AC50 [24]: 41 µM (active)
- AC50 (Paired box protein Pax-8): 3.41 µM (active)
- AC50 [19]: 24 µM (active)
- AC50 [25]: > 70 µM (inactive)

Compound: CC(C)CNc1cc(NC(=O)c2ccccc2)ncn1
- IC50 (Protein Wnt-3a [11]): > 21.8 µM (inactive)
